In ChEMBL document CHEMBL3734659, “Identification of tris-(phenylalkyl)amines as new selective h5-HT2Breceptor antagonists” (Medchemcomm, 2015):
Calls of active or inactive are those of the source. No cut-off for these calls is given here.

Tests used:
[1] = target: Muscarinic acetylcholine receptor M1 (Homo sapiens) (UniProt P11229); experiment: Displacement of [3H]QNB from human Muscarinic acetylcholine M1 receptor stably expressed in CHO cell after 90 mins by scintillation counting method; type: cell-based
Muscarinic acetylcholine receptor M1 (Homo sapiens), sequence (P11229 whole entry): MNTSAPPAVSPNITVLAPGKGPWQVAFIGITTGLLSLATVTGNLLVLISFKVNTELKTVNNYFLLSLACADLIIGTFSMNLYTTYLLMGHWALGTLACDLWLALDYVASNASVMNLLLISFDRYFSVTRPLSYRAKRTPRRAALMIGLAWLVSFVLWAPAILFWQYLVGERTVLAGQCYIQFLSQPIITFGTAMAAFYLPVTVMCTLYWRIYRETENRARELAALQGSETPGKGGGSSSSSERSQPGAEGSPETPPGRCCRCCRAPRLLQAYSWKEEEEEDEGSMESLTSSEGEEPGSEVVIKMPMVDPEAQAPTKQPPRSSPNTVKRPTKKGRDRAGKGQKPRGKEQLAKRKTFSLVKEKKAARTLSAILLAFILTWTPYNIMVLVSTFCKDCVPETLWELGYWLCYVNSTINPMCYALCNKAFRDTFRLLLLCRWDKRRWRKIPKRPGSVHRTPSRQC

D(3) dopamine receptor = D(3) dopamine receptor (Homo sapiens, UniProt P35462); experiment: Displacement of [3H]N-methylspiperone from human recombinant dopamine D3 receptor expressed in HEKT cell membrane after 90 mins by scintillation counting method; type: cell membranes
D(3) dopamine receptor, sequence (P35462 whole entry): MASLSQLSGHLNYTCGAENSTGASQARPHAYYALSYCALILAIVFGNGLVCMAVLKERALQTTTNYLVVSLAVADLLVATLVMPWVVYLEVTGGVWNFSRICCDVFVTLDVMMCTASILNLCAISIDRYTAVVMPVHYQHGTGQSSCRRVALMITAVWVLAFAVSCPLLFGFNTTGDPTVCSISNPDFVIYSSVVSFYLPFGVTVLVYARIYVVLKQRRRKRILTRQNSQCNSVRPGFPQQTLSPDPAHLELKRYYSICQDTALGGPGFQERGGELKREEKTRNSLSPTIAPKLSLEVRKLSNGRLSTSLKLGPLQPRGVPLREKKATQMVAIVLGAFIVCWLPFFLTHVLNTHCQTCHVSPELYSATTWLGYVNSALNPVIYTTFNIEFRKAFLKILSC

[2] = target: T1, 5-hydroxytryptamine receptor 2B (Homo sapiens, UniProt P41595); experiment: Displacement of [3H]LSD from human recombinant 5-HT2B receptor stably expressed in HEK cell membrane after 90 mins by scintillation counting method; type: cell membranes, HEK293
T1 sequence (P41595 whole entry): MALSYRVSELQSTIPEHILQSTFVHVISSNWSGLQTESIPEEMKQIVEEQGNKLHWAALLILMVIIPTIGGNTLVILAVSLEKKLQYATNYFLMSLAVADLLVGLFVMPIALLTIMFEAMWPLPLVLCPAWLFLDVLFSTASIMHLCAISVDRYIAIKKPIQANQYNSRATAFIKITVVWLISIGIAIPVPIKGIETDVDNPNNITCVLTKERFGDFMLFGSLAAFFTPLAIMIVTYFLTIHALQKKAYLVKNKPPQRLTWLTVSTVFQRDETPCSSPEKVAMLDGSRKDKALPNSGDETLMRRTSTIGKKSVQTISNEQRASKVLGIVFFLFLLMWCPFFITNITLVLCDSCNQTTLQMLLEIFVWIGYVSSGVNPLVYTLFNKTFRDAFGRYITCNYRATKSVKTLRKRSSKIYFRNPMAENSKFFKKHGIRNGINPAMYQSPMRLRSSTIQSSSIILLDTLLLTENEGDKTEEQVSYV

Mu-type opioid receptor = Mu-type opioid receptor (Homo sapiens, UniProt P35372); experiment: Displacement of [3H]DAMGO from human mu-opioid receptor stably expressed in HEK cell membrane after 90 mins by scintillation counting method; type: cell membranes, HEK293
Mu-type opioid receptor, sequence (P35372 whole entry): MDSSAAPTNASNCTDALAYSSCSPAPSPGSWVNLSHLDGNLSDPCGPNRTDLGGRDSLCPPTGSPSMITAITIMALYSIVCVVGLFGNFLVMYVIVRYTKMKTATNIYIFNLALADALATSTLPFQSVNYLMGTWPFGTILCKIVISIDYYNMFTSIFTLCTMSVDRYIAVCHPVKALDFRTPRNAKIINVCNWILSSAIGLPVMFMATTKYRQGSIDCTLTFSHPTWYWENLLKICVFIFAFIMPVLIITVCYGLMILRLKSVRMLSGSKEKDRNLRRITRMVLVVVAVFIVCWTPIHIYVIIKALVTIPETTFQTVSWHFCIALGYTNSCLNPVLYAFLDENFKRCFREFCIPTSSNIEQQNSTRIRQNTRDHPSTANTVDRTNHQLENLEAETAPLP

[3] = target: Delta-type opioid receptor (Homo sapiens) (UniProt P41143); experiment: Displacement of [3H]DADLE from human delta-opioid receptor stably expressed in HEK cell membrane after 90 mins by scintillation counting method; type: cell membranes; settings: HEK293
Delta-type opioid receptor (Homo sapiens), sequence (P41143 whole entry): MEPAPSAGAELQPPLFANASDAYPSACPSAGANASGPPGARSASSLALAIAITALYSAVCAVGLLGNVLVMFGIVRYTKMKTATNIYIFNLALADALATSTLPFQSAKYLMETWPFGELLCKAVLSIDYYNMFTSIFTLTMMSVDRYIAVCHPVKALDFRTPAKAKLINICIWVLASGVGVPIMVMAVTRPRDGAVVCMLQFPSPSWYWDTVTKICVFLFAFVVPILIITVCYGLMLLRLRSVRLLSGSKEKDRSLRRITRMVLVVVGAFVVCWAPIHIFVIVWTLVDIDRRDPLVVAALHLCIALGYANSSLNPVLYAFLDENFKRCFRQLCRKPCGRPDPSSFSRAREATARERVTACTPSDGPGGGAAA

[4] = target: Beta-2 adrenergic receptor (Homo sapiens) (UniProt P07550); experiment: Displacement of [3H]CGP12177 from human recombinant beta 2 receptor expressed in HEK Flp-In cells after 90 mins by scintillation counting method; type: cell-based; settings: HEK293
[5] = target: D(1B) dopamine receptor (Homo sapiens) (UniProt P21918); experiment: Displacement of [3H]SCH23390 from human recombinant dopamine D5 receptor expressed in HEKT cell membrane after 90 mins by scintillation counting method; type: cell membranes
[6] = target: T1, 5-hydroxytryptamine receptor 2B; experiment: […] antagonist activity at human recombinant 5-HT2B receptor stably expressed in HEK cell membrane by schild plot method; parameters: species or system HEK293; settings: read-out: pA2 (converted)
[7] = target: Alpha-1A adrenergic receptor (Homo sapiens, UniProt P35348); experiment: Displacement of [3H]Prazosin from human recombinant alpha 1A receptor after 90 mins by scintillation counting method
Alpha-1A adrenergic receptor, sequence (P35348 whole entry): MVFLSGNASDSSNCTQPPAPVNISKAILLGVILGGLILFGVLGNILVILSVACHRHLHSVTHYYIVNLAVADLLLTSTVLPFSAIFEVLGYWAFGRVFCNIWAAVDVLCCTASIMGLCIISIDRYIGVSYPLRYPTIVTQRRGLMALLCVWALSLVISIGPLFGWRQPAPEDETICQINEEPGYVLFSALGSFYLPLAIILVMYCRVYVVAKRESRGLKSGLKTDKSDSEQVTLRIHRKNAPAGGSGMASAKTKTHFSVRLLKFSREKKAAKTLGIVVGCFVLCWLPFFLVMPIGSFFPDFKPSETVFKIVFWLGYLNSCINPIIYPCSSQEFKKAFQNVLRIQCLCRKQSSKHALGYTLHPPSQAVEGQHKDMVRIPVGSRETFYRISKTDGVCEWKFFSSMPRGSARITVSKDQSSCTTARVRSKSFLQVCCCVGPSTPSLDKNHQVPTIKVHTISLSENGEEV

[8] = target: Alpha-2A adrenergic receptor (Homo sapiens, UniProt P08913); experiment: Displacement of [3H]Rauwolscine from human recombinant alpha 2A receptor stably expressed in MDCK cells after 90 mins by scintillation counting method; type: cell-based
Alpha-2A adrenergic receptor, sequence (P08913 whole entry): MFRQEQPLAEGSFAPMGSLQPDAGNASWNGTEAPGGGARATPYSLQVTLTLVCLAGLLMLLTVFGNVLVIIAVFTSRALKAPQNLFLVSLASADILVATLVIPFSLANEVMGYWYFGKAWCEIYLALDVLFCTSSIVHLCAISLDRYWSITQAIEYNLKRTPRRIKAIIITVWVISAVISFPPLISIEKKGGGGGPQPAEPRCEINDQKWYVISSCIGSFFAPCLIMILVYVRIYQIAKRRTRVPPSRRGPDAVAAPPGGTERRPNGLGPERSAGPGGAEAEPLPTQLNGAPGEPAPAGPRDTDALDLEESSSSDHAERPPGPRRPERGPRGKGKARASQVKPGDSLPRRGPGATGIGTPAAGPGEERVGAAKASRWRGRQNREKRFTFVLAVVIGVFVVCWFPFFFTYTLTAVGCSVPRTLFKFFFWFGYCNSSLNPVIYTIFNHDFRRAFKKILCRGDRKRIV

HEK293 [9] = experiment: Selectivity ratio of Ki for human recombinant 5-HT2C receptor to Ki for human recombinant 5-HT2B receptor stably expressed in HEK cell membrane; type: cell-based
[10] = target: Muscarinic acetylcholine receptor M2 (Homo sapiens) (UniProt P08172); experiment: Displacement of [3H]NMS from human Muscarinic acetylcholine M2 receptor stably expressed in CHO cell after 90 mins by scintillation counting method; type: cell-based
Muscarinic acetylcholine receptor M2 (Homo sapiens), sequence (P08172 whole entry): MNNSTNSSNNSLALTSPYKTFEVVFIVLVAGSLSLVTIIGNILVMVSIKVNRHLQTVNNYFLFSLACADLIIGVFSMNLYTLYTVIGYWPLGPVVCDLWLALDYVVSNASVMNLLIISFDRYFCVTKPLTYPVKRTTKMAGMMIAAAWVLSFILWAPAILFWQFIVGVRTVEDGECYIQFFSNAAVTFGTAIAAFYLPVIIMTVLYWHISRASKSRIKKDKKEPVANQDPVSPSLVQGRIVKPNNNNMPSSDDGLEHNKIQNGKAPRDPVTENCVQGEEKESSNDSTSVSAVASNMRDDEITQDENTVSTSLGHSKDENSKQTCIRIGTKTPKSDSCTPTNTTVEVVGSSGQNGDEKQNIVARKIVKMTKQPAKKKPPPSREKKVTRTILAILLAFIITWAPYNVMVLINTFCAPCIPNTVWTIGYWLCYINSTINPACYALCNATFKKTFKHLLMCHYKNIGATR

[11] = target: Alpha-1B adrenergic receptor (Homo sapiens) (UniProt P35368); experiment: Displacement of [3H]Prazosin from human recombinant alpha 1B receptor expressed in HEKT cell membrane after 90 mins by scintillation counting method; type: cell membranes
Alpha-1B adrenergic receptor (Homo sapiens), sequence (P35368 whole entry): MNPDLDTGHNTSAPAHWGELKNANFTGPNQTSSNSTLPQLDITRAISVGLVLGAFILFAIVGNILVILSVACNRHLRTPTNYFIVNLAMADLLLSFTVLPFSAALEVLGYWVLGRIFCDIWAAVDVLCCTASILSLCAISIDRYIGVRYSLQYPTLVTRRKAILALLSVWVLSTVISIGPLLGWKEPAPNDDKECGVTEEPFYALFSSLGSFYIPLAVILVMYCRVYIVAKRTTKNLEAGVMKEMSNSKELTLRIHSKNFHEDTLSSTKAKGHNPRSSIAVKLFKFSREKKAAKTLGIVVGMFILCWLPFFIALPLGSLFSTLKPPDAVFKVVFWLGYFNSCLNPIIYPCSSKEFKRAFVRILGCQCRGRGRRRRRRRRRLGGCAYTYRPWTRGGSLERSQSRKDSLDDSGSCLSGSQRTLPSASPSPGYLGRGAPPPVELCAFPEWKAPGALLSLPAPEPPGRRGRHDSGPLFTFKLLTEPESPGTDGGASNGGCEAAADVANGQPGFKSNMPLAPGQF

[12] = target: 5-hydroxytryptamine receptor 5A (Homo sapiens) (UniProt P47898); experiment: Displacement of [3H]LSD from human recombinant 5-HT5A receptor expressed in Flp-In CHO cell membrane after 90 mins by scintillation counting method; type: cell membranes
[13] = target: T1, 5-hydroxytryptamine receptor 2B; experiment: Displacement of [3H]LSD from human recombinant 5-HT2B receptor stably expressed in HEK cell membrane at 10 uM after 90 mins by scintillation counting method; type: cell membranes; settings: HEK293
HEK293 [14] = experiment: Selectivity ratio of Ki for human recombinant 5-HT2A receptor expressed in HEKT cell membrane to Ki for human recombinant 5-HT2B receptor stably expressed in HEK cells; type: cell-based
D(4) dopamine receptor = D(4) dopamine receptor (Homo sapiens, UniProt P21917); experiment: Displacement of [3H]N-methylspiperone from human recombinant dopamine D4 receptor after 90 mins by scintillation counting method
[15] = Displacement of [3H]DTG from sigma 2 receptor stable expressed in rat PC12 cells after 90 mins by scintillation counting method; type: cell-based; settings: pc-12
[16] = target: Alpha-1D adrenergic receptor (Homo sapiens, UniProt P25100); experiment: Displacement of [3H]Prazosin from human recombinant alpha 1D receptor after 90 mins by scintillation counting method
[17] = target: Sodium-dependent serotonin transporter (Homo sapiens, UniProt P31645); experiment: Displacement of [3H]Citalopram from human serotonin transporter transporter stably expressed in HEK293 cells after 30 mins by neurotransmitter transporter uptake assay; type: cell-based
[18] = target: Translocator protein (Rattus norvegicus) (UniProt P16257); experiment: Displacement of [3H]PK11195 from rat brain PBR after 90 mins by scintillation counting method
Translocator protein (Rattus norvegicus), sequence (P16257 whole entry, looked up): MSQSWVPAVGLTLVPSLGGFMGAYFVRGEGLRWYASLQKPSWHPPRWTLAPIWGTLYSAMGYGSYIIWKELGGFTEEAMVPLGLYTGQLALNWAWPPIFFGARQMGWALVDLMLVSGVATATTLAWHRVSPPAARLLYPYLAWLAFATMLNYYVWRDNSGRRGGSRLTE

[19] = target: Alpha-2B adrenergic receptor (Homo sapiens, UniProt P18089); experiment: Displacement of [3H]Rauwolscine from human recombinant alpha 2B receptor expressed in HEKT cells after 90 mins by scintillation counting method; type: cell-based
[20] = target: Muscarinic acetylcholine receptor M3 (Homo sapiens) (UniProt P20309); experiment: Displacement of [3H]NMS from human Muscarinic acetylcholine M3 receptor stably expressed in CHO cell after 90 mins by scintillation counting method; type: cell-based
[21] = target: T2, 5-hydroxytryptamine receptor 2C (Homo sapiens, UniProt P28335); experiment: Displacement of [3H]mesulergine from human recombinant 5-HT2C receptor expressed in Flp-IN HEK cell membrane after 90 mins by scintillation counting method; type: cell membranes, HEK293; settings: read-out: Ki
T2 sequence (P28335 whole entry): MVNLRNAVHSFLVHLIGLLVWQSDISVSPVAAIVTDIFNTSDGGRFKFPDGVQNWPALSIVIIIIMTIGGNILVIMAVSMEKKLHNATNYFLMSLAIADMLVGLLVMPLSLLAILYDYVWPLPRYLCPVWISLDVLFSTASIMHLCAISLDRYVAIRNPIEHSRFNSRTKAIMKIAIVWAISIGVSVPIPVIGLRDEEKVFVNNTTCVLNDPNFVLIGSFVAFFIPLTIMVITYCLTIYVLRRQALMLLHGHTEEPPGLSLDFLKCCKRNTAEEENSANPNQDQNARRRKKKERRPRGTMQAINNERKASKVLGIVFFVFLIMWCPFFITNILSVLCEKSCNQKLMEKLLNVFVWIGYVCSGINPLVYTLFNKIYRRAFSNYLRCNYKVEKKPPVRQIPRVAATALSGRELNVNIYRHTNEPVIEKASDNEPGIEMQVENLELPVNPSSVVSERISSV

[22] = target: Muscarinic acetylcholine receptor M1 (Homo sapiens) (UniProt P11229); experiment: Displacement of [3H]NMS from human Muscarinic acetylcholine M1 receptor stably expressed in CHO cell after 90 mins by scintillation counting method; type: cell-based
D(2) dopamine receptor = D(2) dopamine receptor (Homo sapiens, UniProt P14416); experiment: Displacement of [3H]N-methylspiperone from human recombinant dopamine D2 receptor expressed in stable fibroblast after 90 mins by scintillation counting method
[23] = target: 5-hydroxytryptamine receptor 3A (Homo sapiens) (UniProt P46098); experiment: Displacement of [3H]GR65630 from human recombinant 5-HT3 receptor expressed in HEKT cell membrane after 90 mins by scintillation counting method; type: cell membranes
Histamine H1 receptor = Histamine H1 receptor (Homo sapiens, UniProt P35367); experiment: Displacement of [3H]Pyrilamine from human H1 Histamine receptors stably expressed in HEK cell membrane after 90 mins by scintillation counting method; type: cell membranes, HEK293
Histamine H1 receptor, sequence (P35367 whole entry): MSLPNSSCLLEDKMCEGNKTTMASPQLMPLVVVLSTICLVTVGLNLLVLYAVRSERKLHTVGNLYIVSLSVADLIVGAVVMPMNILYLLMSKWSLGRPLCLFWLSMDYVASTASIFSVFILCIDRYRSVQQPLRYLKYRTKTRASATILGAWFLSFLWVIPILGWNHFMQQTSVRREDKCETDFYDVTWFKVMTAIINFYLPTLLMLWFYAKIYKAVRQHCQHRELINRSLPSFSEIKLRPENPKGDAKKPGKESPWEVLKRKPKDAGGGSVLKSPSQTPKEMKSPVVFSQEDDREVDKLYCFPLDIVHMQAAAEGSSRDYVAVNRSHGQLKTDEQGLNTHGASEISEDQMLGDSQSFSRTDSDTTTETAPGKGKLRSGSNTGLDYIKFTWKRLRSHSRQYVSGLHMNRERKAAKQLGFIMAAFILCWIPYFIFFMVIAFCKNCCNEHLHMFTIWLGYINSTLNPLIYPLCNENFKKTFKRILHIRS

[24] = target: Muscarinic acetylcholine receptor M5 (Homo sapiens) (UniProt P08912); experiment: Displacement of [3H]QNB from human Muscarinic acetylcholine M5 receptor stably expressed in CHO cell after 90 mins by scintillation counting method; type: cell-based

Activity [1]: inactive | Ki (D(3) dopamine receptor): 498 nM | Ki [2]: 26 nM | Ki (Mu-type opioid receptor): 341 nM | Activity [3]: inactive | Activity [4]: inactive | Activity [5]: inactive | Kb [6]: 550 nM | Ki [7]: 333 nM | Ki [8]: 102 nM | Activity [10]: inactive | Activity [11]: inactive | Activity [12]: inactive | inhibition [13]: > 50% | Ki (D(4) dopamine receptor): 853 nM | Ki [16]: 467 nM | Ki [17]: 1000 nM | Activity [18]: inactive | Ki [19]: 29 nM | Activity [20]: inactive | Ki [21]: 399 nM | Activity [22]: inactive | Ki (D(2) dopamine receptor): 1730 nM | Activity [23]: inactive | Ki (Histamine H1 receptor): 1300 nM | Activity [24]: inactive
Structure (SMILES): COc1ccc(CCN(CCCc2ccccc2)CCc2ccc3c(c2)OCO3)cc1OC
Ratio Ki (HEK293 [9]): 15 | Ratio Ki (HEK293 [14]): 6 | Ki [15]: 242 nM
